The record followed here is ChEMBL document CHEMBL1155411, “Design of two new chemotypes for inhibiting the Janus kinase 2 by scaffold morphing” (Bioorg Med Chem Lett, 2010).

This assay concerns the target Tyrosine-protein kinase JAK2 (Homo sapiens, UniProt O60674). As to the kind of experiment: Inhibition of recombinant GST tagged JAK2 after 60 mins by Caliper mobility shift assay.

A word on the IC50: it is the concentration at which inhibition is half-maximal.

Sequence of Tyrosine-protein kinase JAK2 (O60674 whole entry): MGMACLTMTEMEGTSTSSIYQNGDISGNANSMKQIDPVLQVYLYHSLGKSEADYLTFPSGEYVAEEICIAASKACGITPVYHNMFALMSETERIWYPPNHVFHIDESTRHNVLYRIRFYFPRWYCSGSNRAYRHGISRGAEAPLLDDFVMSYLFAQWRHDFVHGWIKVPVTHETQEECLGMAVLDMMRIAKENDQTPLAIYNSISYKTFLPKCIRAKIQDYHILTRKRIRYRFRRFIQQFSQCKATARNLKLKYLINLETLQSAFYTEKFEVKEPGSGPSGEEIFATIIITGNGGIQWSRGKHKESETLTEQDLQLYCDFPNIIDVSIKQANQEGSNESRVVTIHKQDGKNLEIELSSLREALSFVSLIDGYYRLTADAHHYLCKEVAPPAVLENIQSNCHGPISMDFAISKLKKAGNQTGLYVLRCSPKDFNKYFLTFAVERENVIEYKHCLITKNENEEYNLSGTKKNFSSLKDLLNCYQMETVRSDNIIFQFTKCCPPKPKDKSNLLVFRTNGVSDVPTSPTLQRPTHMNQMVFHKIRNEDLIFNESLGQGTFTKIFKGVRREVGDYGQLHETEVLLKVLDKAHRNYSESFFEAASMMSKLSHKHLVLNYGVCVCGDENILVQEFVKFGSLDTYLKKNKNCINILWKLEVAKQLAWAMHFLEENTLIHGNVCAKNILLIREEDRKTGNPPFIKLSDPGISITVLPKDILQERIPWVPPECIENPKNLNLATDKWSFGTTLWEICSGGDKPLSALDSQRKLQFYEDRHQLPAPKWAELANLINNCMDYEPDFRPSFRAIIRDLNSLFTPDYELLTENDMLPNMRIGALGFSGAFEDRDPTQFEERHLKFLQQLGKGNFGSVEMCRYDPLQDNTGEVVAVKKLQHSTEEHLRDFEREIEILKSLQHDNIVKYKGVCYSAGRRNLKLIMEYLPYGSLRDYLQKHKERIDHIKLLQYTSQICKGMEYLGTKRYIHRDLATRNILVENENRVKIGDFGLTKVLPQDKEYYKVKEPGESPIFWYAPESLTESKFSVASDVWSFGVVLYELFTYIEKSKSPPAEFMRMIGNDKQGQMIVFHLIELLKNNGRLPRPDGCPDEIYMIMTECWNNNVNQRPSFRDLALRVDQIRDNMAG

As for `COc1cc(Nc2ncc3ccn(-c4ccccn4)c3n2)cc(OC)c1OC`, the IC50 came to 5.9 nM.
